Earlier results as cited in patent US20060257475A1, “Stable Sertraline Hydrochloride Formulation and Method” (Boehringer Ingelheim International GmbH, priority 2006, published 2006).

Legend:
[1] = reported in U.S. Pat. No. 5,248,699
[2] = reported in U.S. Pat. No. 5,734,083

CN[C@H]1CC[C@@H](c2ccc(Cl)c(Cl)c2)c2ccccc21 [Form I, (1S-cis)-4-(3,4-Dichlorophenyl)-1,2,3,4-tetrahydro-N-methyl-1-napththalenamine]
Stability among Forms I to V [1]: greatest stability of these five forms
Thermodynamic stability relative to other crystalline forms ([1]; room temperature): more thermodynamically stable than Forms II, III, IV, and V
Solubility [2]: extremely insoluble
